MIC data for seven molecules are collected here from ChEMBL document CHEMBL1129148, “Synthesis and biological evaluation of 4-alkoxy substituted trinems. Part I” (1996).

Holding throughout (type): functional
For experiment [1], the system named is Escherichia coli. The experiment is described as follows: Compound was tested for in vitro antibacterial activity against Escherichia coli 1850E.
For experiment [2], the system named is Escherichia coli. Kind of experiment: Compound was tested for in vitro antibacterial activity against Escherichia coli 1919 a beta-lactamase producing strain(TEM 1) with permeable outer membrane.
The subject of another experiment is Bacteroides fragilis. Kind of experiment: Compound was tested for in vitro antibacterial activity against Bacteroides fragilis 2017.
In the next experiment the test system is Clostridium perfringens. The experiment is described as follows: Compound was tested for in vitro antibacterial activity against Clostridium perfringens 615E.
Another experiment relates to Pseudomonas aeruginosa. Kind of experiment: Compound was tested for in vitro antibacterial activity against Pseudomonas aeruginosa 1911.
The test system of another experiment is Staphylococcus aureus. The experiment is described as follows: Compound was tested for in vitro antibacterial activity against Staphylococcus aureus 853E penicillinase (PCI) producing strain.
The subject of the next experiment is Streptococcus pneumoniae. The experiment is described as follows: Compound was tested for in vitro antibacterial activity against Streptococcus pneumoniae 3512.
In another experiment the test system is Enterococcus faecalis. Kind of experiment: Compound was tested for in vitro antibacterial activity against […] faecalis 850.

Values after ≈ are worked out from the molar mass of the structure shown.

In general, MIC refers to the lowest concentration that inhibits growth of the organism. The low end stands for inhibition by little substance, the high end for a need for much substance. Consider `C[C@@H](O)[C@H]1C(=O)N2C(C(=O)[O-])=C3[C@@H](OCCO)CCC[C@@H]3[C@H]12.[K+]`, for which the MIC was 0.5 µg/mL with Escherichia coli [1]; 0.5 µg/mL against Escherichia coli [2]; 0.1 µg/mL against Bacteroides fragilis; 0.06 µg/mL in the experiment with Clostridium perfringens; more than 32 µg/mL against Pseudomonas aeruginosa; 0.5 µg/mL in the experiment with Staphylococcus aureus. The results for the MIC with Streptococcus pneumoniae and against Enterococcus faecalis were 0.1 µg/mL and 8 µg/mL, respectively.
Regarding `COCCO[C@H]1CCC[C@@H]2C1=C(C(=O)[O-])N1C(=O)[C@H]([C@@H](C)O)[C@@H]21.[K+]`, the MIC against Escherichia coli [1] was more than 32 µg/mL; in the experiment on Escherichia coli [2] it was 32 µg/mL; with Bacteroides fragilis, 32 µg/mL; against Clostridium perfringens, more than 32 µg/mL; in the experiment on Pseudomonas aeruginosa, more than 32 µg/mL; in the experiment with Staphylococcus aureus, 8 µg/mL. For the same molecule, the figures for the minimal inhibitory concentration (MIC) against Streptococcus pneumoniae and with Enterococcus faecalis were 8 µg/mL and more than 32 µg/mL, respectively.
With `C[C@@H](O)[C@H]1C(=O)N2C(C(=O)[O-])=C3[C@@H](OCCF)CCC[C@@H]3[C@H]12.[K+]`, the MIC with Escherichia coli [1] was 4 µg/mL; in the experiment on Escherichia coli [2] it was 0.5 µg/mL; with Bacteroides fragilis it was 0.2 µg/mL; in the experiment with Clostridium perfringens, not above 0.01 µg/mL; in the experiment on Pseudomonas aeruginosa it was more than 32 µg/mL; with Staphylococcus aureus it was 0.2 µg/mL. For the same molecule, the MIC against Streptococcus pneumoniae stood at 0.03 µg/mL; against Enterococcus faecalis, 4 µg/mL.
Consider `COCCO[C@H]1CCC[C@H]2C1=C(C(=O)[O-])N1C(=O)[C@H]([C@@H](C)O)[C@@H]21.[K+]`, for which the MIC in the experiment on Escherichia coli [1] is 2 µg/mL; against Escherichia coli [2], 0.5 µg/mL; in the experiment on Bacteroides fragilis it was 0.1 µg/mL; against Clostridium perfringens, 0.03 µg/mL; against Pseudomonas aeruginosa, more than 32 µg/mL; with Staphylococcus aureus, 0.5 µg/mL. Moreover, the results for the minimum inhibitory concentration (MIC) in the experiment on Streptococcus pneumoniae and with Enterococcus faecalis were 0.2 µg/mL and 2 µg/mL, respectively.
Consider `C[C@@H](O)[C@H]1C(=O)N2C(C(=O)[O-])=C3[C@@H](OCCC#N)CCC[C@@H]3[C@H]12.[K+]`, for which the MIC with Escherichia coli [1] was 4 µg/mL; against Escherichia coli [2], 1 µg/mL; against Bacteroides fragilis it was 0.2 µg/mL; in the experiment on Clostridium perfringens, 0.03 µg/mL; in the experiment on Pseudomonas aeruginosa, more than 32 µg/mL; in the experiment with Staphylococcus aureus it was 0.5 µg/mL. For the same molecule, the minimum inhibitory concentration (MIC) against Streptococcus pneumoniae came to 0.06 µg/mL; with Enterococcus faecalis, 2 µg/mL.
`C[C@@H](O)[C@H]1C(=O)N2C(C(=O)O)=C(SCCNC=N)C[C@H]12` [IMIPENEM ANHYDROUS]: the MIC with Escherichia coli [1] worked out at 0.5 µg/mL (≈ 1.67 µM); in the experiment with Escherichia coli [2], 0.5 µg/mL (≈ 1.67 µM); against Bacteroides fragilis it was 0.06 µg/mL (≈ 0.2 µM); in the experiment on Clostridium perfringens, 0.03 µg/mL (≈ 0.1 µM); against Pseudomonas aeruginosa, 4 µg/mL (≈ 13.4 µM); against Staphylococcus aureus, 0.1 µg/mL (≈ 0.334 µM). The minimum inhibitory concentration (MIC) in the experiment on Streptococcus pneumoniae is less than 0.01 µg/mL; against Enterococcus faecalis, 2 µg/mL (≈ 6.68 µM).
For `CO[C@H]1CCC[C@H]2C1=C(C(=O)[O-])N1C(=O)[C@H]([C@@H](C)O)[C@@H]21.[Na+]` [SANFETRINEM SODIUM], the MIC in the experiment on Escherichia coli [1] was 0.5 µg/mL; with Escherichia coli [2] it was 0.5 µg/mL; against Bacteroides fragilis, 0.06 µg/mL; against Clostridium perfringens it was 0.03 µg/mL; against Pseudomonas aeruginosa, more than 32 µg/mL; in the experiment on Staphylococcus aureus, 0.2 µg/mL. For the same molecule, the MIC is not above 0.01 µg/mL against Streptococcus pneumoniae and 1 µg/mL with Enterococcus faecalis.
